Data as given in patent US10035766B2, “Compositions for preventing and/or treating lysosomal storage disorders” (Amicus Therapeutics, Inc., priority 2009, dated 2018).
Counter-ions that a name gives are not always drawn.

Assay: Blood brain barrier penetration: plasma and brain levels after single oral dose
Format: in vivo
Conditions: mice, single 30 mg/kg (free base equivalent) p.o.
Experimental: For this purpose, 8-week old wild-type male mice (C57BL/6) were administered a single 30 mg/kg (free base equivalent) p.o. dose of reference or test compound by gavage (n=3 mice per time point). Dosing solutions were prepared in water. After dosing, mice were euthanized with CO2 at the following time points: 0-, 0.5-, 1-, and 4-hour post-dose. […] Similarly, brains were collected from each mouse. Plasma was derived by spinning whole blood at 2,700×g for 10 minutes at 4° C. followed by storage on dry ice. Whole brains were washed in cold PBS to remove contaminating blood, blotted dry, flash frozen on dry ice, and ultimately stored at −80° C. until analysis. To prepare brain samples for analysis, 50-100 mg of tissue was homogenized in […] of water/mg tissue. Samples were then clarified by centrifugation. Next, 25 μl of the brain homogenate supernatant or 25 μl of plasma were combined with 25 μl of acetonitrile:water (95/5). […] Samples were again clarified by centrifugation and 75 μl of the supernatant was combined with 75 μl of acetonitrile. Samples were then analyzed for compound levels by LC-MS/MS at PPD Inc. (3230 Deming Way, Middleton, Wis. 53562). In brief, a Thermo Betasil, Silica-100, 50×3 mm, 5μ column equilibrated with a mixture of mobile phase consisting of 5 mM ammonium formate and 0.05% formic acid in (A) 95:5 acetonitrile:water or (B) 70:20:10 methanol:water:acetonitrile was employed. Between 20 and 30 μl sample was injected for analysis. For calculating drug concentrations, raw data for plasma (ng/mL) and brain (ng/g) was converted to nM using the molecular weight of respective compounds and assuming 1 g of tissue is equivalent to 1 mL volume. Concentration as a function of time was plotted in GraphPad Prism version 4.02.

levels detected in brain compared to IFG-tartrate | SMILES | blood brain barrier crossing compared to IFG-tartrate
higher levels | CC(F)[C@H]1CNC[C@@H](O)[C@@H]1O (single isomer, unassigned) | crossed the blood brain barrier more readily as compared to IFG-tartrate
higher levels | CC[C@@H](F)[C@H]1CNC[C@@H](O)[C@@H]1O.Cl [(3R,4R,5S)-5-((R)-1-fluoropropyl)-piperidine-3,4-diol hydrochloride] | crossed the blood brain barrier more readily as compared to IFG-tartrate
higher levels | O[C@@H]1[C@@H](Cc2ccccc2)CNC[C@H]1O [(3R,4R,5S)-5-benzyl-piperidine-3,4-diol] | crossed the blood brain barrier more readily as compared to IFG-tartrate

SMILES | levels detected in brain compared to IFG-tartrate | blood brain barrier crossing compared to IFG-tartrate
O[C@H]1[C@H](O)CNC[C@@H]1C(F)F [Compound 6, (3R,4R,5S)-5-(Difluoromethyl)piperdine 3,4-diol Hydrochloride] | higher levels | crossed the blood brain barrier more readily as compared to IFG-tartrate
